In PubChem BioAssay (NCI):
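96-well plates; 48 h exposure; 5 concentrations. Endpoints by linear interpolation between flanking doses. Not reached: highest tested concentration assigned. At the TGI there is no net growth.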

What was measured:
Assay in all cases: NCI tumour cell line growth inhibition, 48 h
ACHN renal = test system: ACHN renal
786-0 renal = test system: 786-0 renal
SF-268 CNS = test system: SF-268 CNS
NCI-H226 lung = test system: NCI-H226 lung
HL-60(TB) leukemia = test system: HL-60(TB) leukemia
CCRF-CEM leukemia = test system: CCRF-CEM leukemia
PC-3 prostate = test system: PC-3 prostate
MCF7 breast = test system: MCF7 breast
EKVX NSCLC = test system: EKVX NSCLC
RXF 393 renal = test system: RXF 393 renal

`COC(=O)n1c(CBr)c(Br)c2ccccc21` was tested, and the TGI (ACHN renal) was 47.9 µM, the TGI (786-0 renal) was over 100 µM and the TGI (SF-268 CNS) was 75.8 µM. The TGI (NCI-H226 lung) was 33.6 µM, the TGI (HL-60(TB) leukemia) was 59.8 µM and the TGI (CCRF-CEM leukemia) was 70.2 µM.

With `COc1cc(/C=C/C(=O)OC[C@H](Br)[C@H](OC(C)=O)c2ccc3c(c2)OCO3)cc(OC)c1OC` the TGI (PC-3 prostate) was over 100 µM, the TGI (ACHN renal) was over 100 µM and the TGI (MCF7 breast) was over 100 µM. It also gave a TGI (786-0 renal) of over 100 µM, a TGI (EKVX NSCLC) of over 100 µM and a TGI (SF-268 CNS) of over 100 µM. It also gave a TGI (RXF 393 renal) of over 100 µM, a TGI (NCI-H226 lung) of over 100 µM and a TGI (CCRF-CEM leukemia) of over 100 µM.

In the case of `CC(=O)NC1=C(NCc2ccc(Cl)cc2)C(=O)c2ccccc2C1=O`, the TGI (ACHN renal) was 6.13 µM, the TGI (786-0 renal) was 15.7 µM and the TGI (EKVX NSCLC) was 31.4 µM. The TGI (SF-268 CNS) was over 50 µM, the TGI (RXF 393 renal) was 10.5 µM and the TGI (NCI-H226 lung) was 26.1 µM. It also gave a TGI (HL-60(TB) leukemia) of 3.22 µM and a TGI (CCRF-CEM leukemia) of 32.3 µM.

With `c1ccc(C2=C(c3ccccc3)P(c3ccccc3)C2)cc1` (stereo not drawn) the TGI (PC-3 prostate) was over 100 µM, the TGI (ACHN renal) was over 100 µM and the TGI (MCF7 breast) was over 100 µM. For the same compound, the TGI (786-0 renal) was over 100 µM, the TGI (SF-268 CNS) was over 100 µM and the TGI (RXF 393 renal) was over 100 µM. The TGI (NCI-H226 lung) was over 100 µM and the TGI (CCRF-CEM leukemia) was over 100 µM.

In the case of `CC(=O)Nc1ccc(-c2nnc(SCC(=O)Nc3ccccc3C)o2)cc1`, the TGI (ACHN renal) was over 100 µM, the TGI (786-0 renal) was over 100 µM and the TGI (SF-268 CNS) was over 100 µM. The TGI (RXF 393 renal) was over 100 µM, the TGI (NCI-H226 lung) was over 100 µM and the TGI (HL-60(TB) leukemia) was over 100 µM. It also gave a TGI (CCRF-CEM leukemia) of over 100 µM.

`O=C(O)C1SCCS1` gave a TGI (PC-3 prostate) of over 100 µM, a TGI (ACHN renal) of over 100 µM and a TGI (MCF7 breast) of over 100 µM. For the same compound, the TGI (786-0 renal) was over 100 µM, the TGI (EKVX NSCLC) was over 100 µM and the TGI (SF-268 CNS) was over 100 µM. It also gave a TGI (NCI-H226 lung) of over 100 µM, a TGI (HL-60(TB) leukemia) of over 100 µM and a TGI (CCRF-CEM leukemia) of over 100 µM.

`Cc1ccc2nc(Cl)c(/C=N/N3C(=O)/C(=C/c4ccc(N(C)C)cc4)N=C3c3ccccc3)cc2c1` was tested, and the TGI (PC-3 prostate) was over 100 µM, the TGI (ACHN renal) was over 100 µM and the TGI (MCF7 breast) was over 100 µM. It also gave a TGI (786-0 renal) of over 100 µM, a TGI (EKVX NSCLC) of over 100 µM and a TGI (SF-268 CNS) of over 100 µM. For the same compound, the TGI (HL-60(TB) leukemia) was over 100 µM and the TGI (CCRF-CEM leukemia) was over 100 µM.

For `COc1ccc2c(c1)CC[C@@H]1[C@@H]2CC[C@]2(C)C(=O)/C(=C/c3cc(OC)c(OC)c(OC)c3)C[C@@H]12`, the TGI (PC-3 prostate) was 26.9 µM, the TGI (ACHN renal) was 40.7 µM and the TGI (MCF7 breast) was over 100 µM. For the same compound, the TGI (786-0 renal) was 39 µM, the TGI (EKVX NSCLC) was over 100 µM and the TGI (RXF 393 renal) was 86.8 µM. It also gave a TGI (HL-60(TB) leukemia) of over 100 µM.

`COc1cc2c(c(OC)c1OC)-c1ccc(SC)c(=O)cc1C(CC(=O)Oc1cccc(C#N)c1)C2` (stereo not drawn) was tested, and the TGI (ACHN renal) was over 100 µM, the TGI (786-0 renal) was over 100 µM and the TGI (EKVX NSCLC) was over 100 µM. The TGI (SF-268 CNS) was over 100 µM, the TGI (NCI-H226 lung) was 1.02 µM and the TGI (HL-60(TB) leukemia) was 2.35 µM. For the same compound, the TGI (CCRF-CEM leukemia) was 5.33 µM.

`Cc1c(F)c(N)c2c(=O)cc(-c3ccc(NC(=O)C(N)CCCN=C(N)N)c(F)c3)oc2c1F` (stereo not drawn) showed a TGI (PC-3 prostate) of over 76.6 µM, a TGI (ACHN renal) of 48.5 µM and a TGI (786-0 renal) of over 100 µM. For the same compound, the TGI (EKVX NSCLC) was over 100 µM, the TGI (SF-268 CNS) was over 100 µM and the TGI (RXF 393 renal) was 59.3 µM. For the same compound, the TGI (NCI-H226 lung) was 0.758 µM, the TGI (HL-60(TB) leukemia) was over 100 µM and the TGI (CCRF-CEM leukemia) was over 100 µM.

`O=C(O)c1ccc(C2C3C=CC(C3)C2[N+](=O)[O-])cc1` (stereo not drawn) gave a TGI (786-0 renal) of over 100 µM, a TGI (EKVX NSCLC) of over 100 µM and a TGI (SF-268 CNS) of over 100 µM. The TGI (RXF 393 renal) was over 100 µM, the TGI (NCI-H226 lung) was over 100 µM and the TGI (HL-60(TB) leukemia) was over 100 µM. It also gave a TGI (CCRF-CEM leukemia) of over 100 µM.

`CC(C)(C)OC(=O)NCC(=O)N1CCCN(C(=O)CNC(=O)OC(C)(C)C)CC1` gave a TGI (PC-3 prostate) of over 100 µM, a TGI (ACHN renal) of over 100 µM and a TGI (MCF7 breast) of over 100 µM. For the same compound, the TGI (786-0 renal) was over 100 µM, the TGI (EKVX NSCLC) was over 100 µM and the TGI (SF-268 CNS) was over 100 µM. The TGI (RXF 393 renal) was over 100 µM, the TGI (NCI-H226 lung) was over 100 µM and the TGI (HL-60(TB) leukemia) was over 100 µM.

`CCC(C)C1(O)OC2CC3(C)OC(=CC3=O)/C(C)=C\C3OC(=O)C1(C)C32` (stereo not drawn) showed a TGI (PC-3 prostate) of over 100 µM, a TGI (ACHN renal) of 23.5 µM and a TGI (MCF7 breast) of 28.4 µM. The TGI (786-0 renal) was 81.8 µM, the TGI (EKVX NSCLC) was 32.2 µM and the TGI (SF-268 CNS) was over 100 µM. For the same compound, the TGI (NCI-H226 lung) was 63 µM, the TGI (HL-60(TB) leukemia) was 63.8 µM and the TGI (CCRF-CEM leukemia) was over 100 µM.
